Measured values from paper PMC6155812, “Synthesis, Anti-Breast Cancer Activity, and Molecular Docking Study of a New Group of Acetylenic Quinolinesulfonamide Derivatives” (Molecules : A Journal of Synthetic Chemistry and Natural …, 2017).
Where two headings read alike, the source gives them in different places.

Key:
[1] = tested on: MCF-7 (human adenocarcinoma) cells; assay: WST-1 antiproliferative assay, MCF-7; format: cell-based; details: 3–4 days, 0.5–250 µM, neg = negative in concentration used; for IC50: read-out: IC50 ± SD, MCF-7
Excerpt: (§1) Encouraged by promising results in the field of antiproliferative derivatives of acetylenic sulfanylquinoline derivatives, in this study the decision was made to combine the biological potentials of sulfamoylquinoline and alkynyl moieties, with the intention of obtaining compounds with better activity against breast cancer cell lines. The SAR analyses of the acetylenic sufamoylquinoline were based on the cell growth inhibition potencies on the MCF-7 (human adenocarcinoma), MDA-MB-231 and T-47D (human ductal carcinoma) cells using the WST-1 assay. The results from the in vitro cytotoxicity assay are expressed as the concentration of compound (µM) that inhibited the proliferation of 50% of the tumor cells, compared to the control untreated cells (IC50). Cisplatin was used as a positive control to induce cell death.
(§2) The cell lines (MCF-7, MDA-MB-231, and nontumor HFF-1) were cultured and kept in Dubecco’s modified Eagle medium (DMEM) supplemented with 10% fetal bovine serum (FBS) 1.000 IU·mL^−1 penicillin and 10 mg·m^−1·mL^−1 streptomycin in atmosphere with 5% CO2 at 37 °C. The cells were seeded using a series of standard 96-well plates (Corning). Test compounds were prepared at a concentration of 5.0 mM dimethyl sulfoxide (DMSO). Freshly prepared dilutions of the test compounds in a culture medium at a concentration of 0.5–250 µM were added to the microtiter plates and the cells were grown for 3–4 days. Solvent control (DMSO) was included to check its potential inhibitory activity at the concentration used. After incubation, the cell growth rate was evaluated by performing a WST-1 assay. The amount of formazan produced was measured at 450 nm. Expermentally determined absorbance values were transformed into the cell percentage of growth as described previously. Each test point was performed in triplicate for each tested compound cocentration. The results were statistically analyzed using PraphPad Prism 6 software (Graphpad Software, Inc., La Jolla, CA, USA).

[2] = tested on: T47D (human ductal carcinoma) cells; assay: WST-1 antiproliferative assay, T47D; format: cell-based; details: WST-1 assay, 3–4 days, 0.5–250 µM, neg = negative in concentration used; for IC50: read-out: IC50 ± SD, T47D
Excerpt: as §1, §2

MDA-MB-231 cells = assay: WST-1 antiproliferative assay, MDA-MB-231; format: cell-based, human; details: 3–4 days, 0.5–250 µM, neg = negative in concentration used, read-out: IC50 ± SD, MDA-MB-231
Excerpt: as §1, §2

HFF-1 normal fibroblasts = assay: WST-1 cytotoxicity assay, normal fibroblasts HFF-1; format: cell-based, human; details: 3–4 days, 0.5–250 µM, neg = negative in concentration used; for IC50: read-out: IC50 ± SD, HFF-1
Excerpt: as §1, §2

[3] = Homo sapiens, MCF7, WST-1 assay
[4] = Homo sapiens, MDA-MB-231, WST-1 assay
[5] = Homo sapiens, HFF-1, WST-1 assay

SMILES | IC50 [1, 3] | IC50 ([2]; Homo sapiens, T47D) | IC50 (MDA-MB-231 cells; [4]) | melting point | IC50 ± SD, T47D [2] | IC50 ± SD, MCF-7 ([1]; WST-1 assay) | IC50 ([2]; listed as 4-(3-propynylthio)-7-[N-methyl-N-(3-propynyl)sulfamoyl]quinoline) | IC50 ([1]; WST-1 assay) | IC50 [2] | IC50 (MDA-MB-231 cells; WST-1 assay) | IC50 (HFF-1 normal fibroblasts; WST-1 assay) | IC50 ± SD, HFF-1 (HFF-1 normal fibroblasts; WST-1 assay) | IC50 (HFF-1 normal fibroblasts; [5])
N.N.[Cl][Pt][Cl] [Cisplatin, reference compound] |  |  |  |  |  |  |  | 77.76 ± 0.76 µM | 30.3 ± 0.34 µM | 17.6 ± 0.31 µM | 7.2 ± 0.6 µM |  | 
C#CC[Se]c1nc2ccccc2cc1S(=O)(=O)N(C)CC#C [6a, 2-(3-Propynylseleno)-3-[N-methyl-N-(3-propynyl)sulfamoyl]quinoline] | 237.9 ± 2.11 µM | 146 ± 1.98 µM | 0.42 ± 0.01 µM | 109 to 110 °C |  |  |  |  |  |  |  | neg | 
C#CCSc1ccnc2ccc(S(=O)(=O)N(C)CC#C)cc12 [5d, 4-(3-Propynylthio)-6-[N-methyl-N-(3-propynyl)sulfamoyl]quinoline] | 236.8 ± 2.34 µM |  | 202 ± 5.46 µM | 139 to 140 °C | neg |  |  |  |  |  |  | neg | 
O=S(=O)(Cl)c1cnc2ccc(Cl)cc2c1 [compound 13, 6-chloro-3-chlorosulfonylquinoline] |  |  |  | 109 to 110 °C |  |  |  |  |  |  |  |  | 
C#CCSc1ccc2ncc(SCC#C)cc2c1 [compound 11, 3,6-Di(3-propynylthio)quinoline] | 7.36 ± 0.45 µM | 127 ± 2.01 µM | 8.73 ± 0.78 µM | 97 to 98 °C |  |  |  |  |  |  |  |  | 176 ± 3 µM
C#CC[Se]c1ccnc2cc(S(=O)(=O)N(C)CC#C)ccc12 [6e, 4-(3-Propynylseleno)-7-[N-methyl-N-(3-propynyl)sulfamoyl]quinoline] | 109 ± 2.11 µM | 160 ± 3.23 µM | 23.5 ± 1.02 µM | 108 to 109 °C |  |  |  |  |  |  |  | neg | 
C#CCSc1ccc2cc(S(=O)(=O)N(C)CC#C)ccc2n1 [5b, 2-(3-Propynylthio)-6-[N-methyl-N-(3-propynyl)sulfamoyl]quinoline] | 18.4 ± 0.98 µM | 182 ± 3.23 µM |  | 164 to 165 °C |  |  |  |  |  | 0.27 ± 0.03 µM |  | neg | 
C#CCN(C)S(=O)(=O)c1ccc2ncc(S(=O)(=O)N(C)CC#C)cc2c1 [compound 12, 3,6-Di[N-methyl-N-(3-propynyl)sulfamoyl]quinoline] | 3.14 ± 0.34 µM | 2.5 ± 0.09 µM | 2.86 ± 0.34 µM | 138 to 139 °C |  |  |  |  |  |  |  |  | 375.5 ± 3 µM
C#CCN(C)S(=O)(=O)c1ccc2nc(Cl)ccc2c1 [2b, 2-Chloro-6-[N-methyl-N-(3-propynyl)sulfamoyl]quinoline] | 22.9 ± 1.45 µM | 0.3 ± 0.03 µM | 0.24 ± 0.01 µM | 140 to 141 °C |  |  |  |  |  |  |  | neg | 
C#CC[Se]c1ccnc2ccc(S(=O)(=O)N(C)CC#C)cc12 [6d, 4-(3-Propynylseleno)-6-[N-methyl-N-(3-propynyl)sulfamoyl]quinoline] | 259 ± 5.45 µM |  | 0.68 ± 0.09 µM | 139 to 140 °C | neg |  |  |  |  |  |  |  | 331 ± 4 µM
C#CCSc1ccnc2cc(S(=O)(=O)N(C)CC#C)ccc12 [5e, 4-(3-Propynylthio)-7-[N-methyl-N-(3-propynyl)sulfamoyl]quinoline] | 0.27 ± 0.03 µM |  | 7.12 ± 0.78 µM | 113 to 114 °C |  |  | 0.07 µM |  | 0.21 ± 0.01 µM |  |  |  | 276.1 ± 2.6 µM
C#CC[Se]c1ccc2cc(S(=O)(=O)N(C)CC#C)ccc2n1 [6b, 2-(3-Propynylseleno)-6-[N-methyl-N-(3-propynyl)sulfamoyl]quinoline] | 22.72 ± 0.12 µM | 10.6 ± 0.15 µM |  | 179 to 180 °C |  |  |  |  |  | 1.32 ± 0.12 µM |  |  | 92.9 ± 2 µM
C#CC[Se]c1c(S(=O)(=O)N(C)CC#C)cnc2ccccc12 [6c, 4-(3-Propynylseleno)-3-[N-methyl-N-(3-propynyl)sulfamoyl]quinoline] | 113 µM | 313 ± 7.98 µM | 17.6 ± 0.87 µM | 122 to 123 °C |  |  |  |  |  |  |  | neg | 
C#CC[Se]c1ccnc2c(S(=O)(=O)N(C)CC#C)cccc12 [6f, 4-(3-Propynylseleno)-8-[N-methyl-N-(3-propynyl)sulfamoyl]quinoline] | 0.26 ± 0.01 µM | 55.6 ± 1.78 µM | 64.5 ± 1.98 µM | 111 to 115 °C |  |  |  |  |  |  |  |  | 317 ± 5.46 µM

The next lines start with results.

IC50 [1, 3] | IC50 ([2]; Homo sapiens, T47D) | IC50 (MDA-MB-231 cells; [4]) | melting point | IC50 ± SD, T47D [2] | IC50 ± SD, MCF-7 ([1]; WST-1 assay) | IC50 ([2]; listed as 4-(3-propynylthio)-7-[N-methyl-N-(3-propynyl)sulfamoyl]quinoline) | SMILES | IC50 ([1]; WST-1 assay) | IC50 [2] | IC50 (MDA-MB-231 cells; WST-1 assay) | IC50 (HFF-1 normal fibroblasts; WST-1 assay) | IC50 ± SD, HFF-1 (HFF-1 normal fibroblasts; WST-1 assay) | IC50 (HFF-1 normal fibroblasts; [5])
61.2 ± 1.65 µM | 295.6 ± 2.56 µM | 204 ± 3.1 µM | 130 to 133 °C |  |  |  | C#CCN(C)S(=O)(=O)c1cccc2c(Cl)ccnc12 [2f, 4-Chloro-8-[N-methyl-N-(3-propynyl)sulfamoyl]quinoline] |  |  |  |  |  | 153 ± 3 µM
233.8 ± 1.56 µM | 292 ± 2.34 µM | 180 ± 2.35 µM | 124 to 125 °C |  |  |  | C#CCN(C)S(=O)(=O)c1ccc2nccc(Cl)c2c1 [2d, 4-Chloro-6-[N-methyl-N-(3-propynyl)sulfamoyl]quinoline] |  |  |  |  |  | 425.2 ± 1.46 µM
 | 26.8 ± 0.67 µM | 59.3 ± 1.56 µM | 119 to 120 °C |  |  |  | C#CCN(C)S(=O)(=O)c1ccc2c(Cl)ccnc2c1 [2e, 4-Chloro-7-[N-methyl-N-(3-propynyl)sulfamoyl]quinoline] |  |  |  |  | neg | 
13.09 ± 0.11 µM | 0.27 ± 0.03 µM | 21.2 ± 0.96 µM | 119 to 120 °C |  |  |  | C#CCSc1ccnc2c(S(=O)(=O)N(C)CC#C)cccc12 [5f, 4-(3-Propynylthio)-8-[N-methyl-N-(3-propynyl)sulfamoyl]quinoline] |  |  |  |  |  | 366.1 ± 1.46 µM
351 ± 6.32 µM |  | 140 ± 1.98 µM | 110 to 111 °C | neg ^1 |  |  | C#CCN(C)S(=O)(=O)c1cc2ccccc2nc1Cl [2a, 2-Chloro-3-[N-methyl-N-(3-propynyl)sulfamoyl]quinoline] |  |  |  |  | neg | 
 | 205 ± 6.02 µM | 116 ± 2.13 µM | 101 to 102 °C |  | neg |  | C#CCSc1c(S(=O)(=O)N(C)CC#C)cnc2ccccc12 [5c, 4-(3-Propynylthio)-3-[N-methyl-N-(3-propynyl)sulfamoyl]quinoline] |  |  |  |  | neg | 
 | 2.24 ± 0.11 µM | 0.27 ± 0.02 µM | 120 to 121 °C |  |  |  | C#CCN(C)S(=O)(=O)c1cnc2ccccc2c1Cl [2c, 4-Chloro-3-[N-methyl-N-(3-propynyl)sulfamoyl]quinoline] |  |  |  |  |  | 85.4 ± 1.6 µM
288 ± 3.45 µM |  | 11.8 ± 0.87 µM | 100 to 101 °C | neg |  |  | C#CCSc1nc2ccccc2cc1S(=O)(=O)N(C)CC#C [5a, 2-(3-Propynylthio)-3-[N-methyl-N-(3-propynyl)sulfamoyl]quinoline] |  |  |  |  | neg | 
118 ± 2.04 µM | 11.7 ± 1.11 µM | 26.8 ± 1.45 µM | 146 to 147 °C |  |  |  | C#CCN(C)S(=O)(=O)c1cnc2ccc(Cl)cc2c1 [compound 14, 6-Chloro-3-[N-methyl-N-(3-propynyl)sulfamoyl]quinoline] |  |  |  |  |  | 71.8 ± 1.6 µM
